# From US20040009172A1, “Use of anti-TNFalpha antibodies and another drug” (priority 2002, published 2004)
# System: patients with rheumatoid arthritis (RA)
# Assay: Multicenter, randomized, double-blind, placebo-controlled study of D2E7 in RA patients: efficacy (ACR response)
# Type: in vivo, human
# Experimental: A study was designed and conducted to investigate the safety and efficacy of D2E7 40 mg administered every other week to patients with RA whose disease was not adequately treated with their current anti-rheumatic therapies (including accepted DMARDs, NSAIDs, or steroids); and was a multicenter, randomized, double-blind, placebo-controlled study in which D2E7 was subcutaneously (sc) administered every other week for up to 24 weeks at a dosage of 40 mg to patients with rheumatoid arthritis (RA) whose disease was not adequately treated with their current anti-rheumatic therapies. Anti-rheumatic therapies permitted for use during the study included accepted disease-modifying anti-rheumatic drugs (DMARDs), non-steroidal anti-inflammatory drugs (NSAIDs), or steroids. Despite using anti-rheumatic therapies, patients must have had active disease documented at both the screening and baseline visits. Doses of DMARDs, as well as concomitant prednisone (<10 mg daily) and NSAIDs, were required to be stable for at least 28 days prior to screening. Additionally, patients using azathioprine and/or cyclosporine discontinued these therapies and underwent a 28-day washout period before screening. At the baseline visit, patients were randomized to D2E7 or placebo and this signified the start of the 24-week placebo-controlled period. Patients were examined at Weeks 2, 4, 8, 12, 16, 20 and 24 of the study.
# Patients were inadequately treated with their current anti-rheumatic therapies and had active RA, defined as ≧6 swollen joints and ≧9 tender joints. Additionally, patients using glucocorticoids were allowed into the study if the dose was equivalent to ≦10 mg/day prednisone and had remained unchanged for at least 28 days.
# D2E7 was supplied in 2-mL glass vials (the concentration of D2E7 in each vial was 25 mg/mL (ie, 40 mg/1.6 mL)), each containing 40 mg D2E7/1.6 mL solution for injection. D2E7 was manufactured and supplied by Ebewe Arzneimittel GmbH, in Unterach, Austria. McKesson, FIBOC Biosciences, in Rockville, Md., USA, packaged, labeled, stored and distributed D2E7 to the investigators at, each site for this study. D2E7 was self-administered as a single sc injection of 40 mg every other week for a period of 24 weeks. The concentration of study drug was 25 mg/mL. Placebo/1.6 mL (citrate-phosphate buffer solution without D2E7) was self-administered as a single sc injection every other week for a period of 24 weeks.
# Patients continued to receive their pre-study dose of anti-rheumatic therapies. Anti-rheumatic therapies permitted for use during the study included DMARDs (hydroxychloroquine, leflunomide, methotrexate, parenteral gold, oral gold and sulfasalazine, or any combination of these or other DMARDs), NSAIDs and steroids. Doses of these DMARDs as well as concomitant prednisone (≦10 mg daily) and NSAIDs must have been stable for at least 28 days prior to screening.
# Efficacy endpoints included: ACR20 response at Week 24; ACR50 and ACR70 at Week 24; AUC (area under the curve) of ACR20, ACR50 and ACR70 from baseline to Week 24; time to first response for ACR20, ACR50 and ACR70; numeric ACR (ACR-N); change from baseline to Week 24 in components of the ACR response criteria (tender joint count [TJC], swollen joint count [SJC], patient assessment of pain, patient and physician global assessments of disease activity, HAQ and C-reactive protein [CRP]); change from baseline to Week 24 in physical function as measured by SF-36, health utilities index (HUI), functional assessment of chronic illness therapy (FACIT) fatigue scale; Euro-QoL questionnaire; multidimensional assessment of fatigue (MAF) scale; subject summary survey; incidence and time to dose increases in background DMARD and/or steroid therapy; institution of new DMARD therapy for lack of clinical response; rheumatoid factor (RF); and morning stiffness.
# Adverse events were summarized by frequency, percentage, as well as the rate per 100 patient-years. […]
# [1] = Non-responder, full analysis set excluding Site #7, N = 315
# [2] = Week 2, full analysis set excluding Site #7, N = 315
# [3] = Week 4, full analysis set excluding Site #7, N = 315
# [4] = Week 8, full analysis set excluding Site #7, N = 315
# [5] = Week 12, full analysis set excluding Site #7, N = 315
# [6] = Week 16, full analysis set excluding Site #7, N = 315
# [7] = Week 20, full analysis set excluding Site #7, N = 315
substance,measurement,setting,value
"D2E7: recombinant, neutralizing human anti-hTNFα antibody; VL region SEQ ID NO: 1, VH region SEQ ID NO: 2","ACR50 response, % of patients responding","LOCF Week 24, N = 315",(30.2) %
same,"ACR50 response, N of patients responding","LOCF Week 24, N = 315",95
same,"ACR70 response, % of patients responding","LOCF Week 24, N = 315",(15.2) %
same,"ACR70 response, N of patients responding","LOCF Week 24, N = 315",48
same,ACR-N Mean ± SD,"LOCF Week 24, N = 315",21.2 ± 55.3
same,"Time to response ACR20: % of patients, Non-responder",[1],(19.4) %
same,"Time to response ACR20: N of patients, Non-responder",[1],61
same,"Time to response ACR50: % of patients, Non-responder",[1],(50.8) %
same,"Time to response ACR50: N of patients, Non-responder",[1],160
same,"Time to response ACR70: % of patients, Non-responder",[1],(73.3) %
same,"Time to response ACR70: N of patients, Non-responder",[1],231
same,Time to response ACR20: % of patients responding for the first time,[2],(33.7) %
same,Time to response ACR20: N of patients responding for the first time,[2],106
same,Time to response ACR50: % of patients responding for the first time,[2],(9.8) %
same,Time to response ACR50: N of patients responding for the first time,[2],31
same,Time to response ACR70: % of patients responding for the first time,[2],(2.9) %
same,Time to response ACR70: N of patients responding for the first time,[2],9
same,Time to response ACR20: % of patients responding for the first time,[3],(16.2) %
same,Time to response ACR20: N of patients responding for the first time,[3],51
same,Time to response ACR50: % of patients responding for the first time,[3],(9.8) %
same,Time to response ACR50: N of patients responding for the first time,[3],31
same,Time to response ACR70: % of patients responding for the first time,[3],(3.8) %
same,Time to response ACR70: N of patients responding for the first time,[3],12
same,Time to response ACR20: % of patients responding for the first time,[4],(16.5) %
same,Time to response ACR20: N of patients responding for the first time,[4],52
same,Time to response ACR50: % of patients responding for the first time,[4],(10.8) %
same,Time to response ACR50: N of patients responding for the first time,[4],34
same,Time to response ACR70: % of patients responding for the first time,[4],(3.8) %
same,Time to response ACR70: N of patients responding for the first time,[4],12
same,Time to response ACR20: % of patients responding for the first time,[5],(5.4) %
same,Time to response ACR20: N of patients responding for the first time,[5],17
same,Time to response ACR50: % of patients responding for the first time,[5],(6.3) %
same,Time to response ACR50: N of patients responding for the first time,[5],20
same,Time to response ACR70: % of patients responding for the first time,[5],(5.7) %
same,Time to response ACR70: N of patients responding for the first time,[5],18
same,Time to response ACR20: % of patients responding for the first time,[6],(4.1) %
same,Time to response ACR20: N of patients responding for the first time,[6],13
same,Time to response ACR50: % of patients responding for the first time,[6],(6.3) %
same,Time to response ACR50: N of patients responding for the first time,[6],20
same,Time to response ACR70: % of patients responding for the first time,[6],(5.7) %
same,Time to response ACR70: N of patients responding for the first time,[6],18
same,Time to response ACR20: % of patients responding for the first time,[7],(3.8) %
same,Time to response ACR20: N of patients responding for the first time,[7],12
same,Time to response ACR50: % of patients responding for the first time,[7],(2.9) %
same,Time to response ACR50: N of patients responding for the first time,[7],9
same,Time to response ACR70: % of patients responding for the first time,[7],(2.2) %
same,Time to response ACR70: N of patients responding for the first time,[7],7
same,"ACR20 response, % of patients","Week 24, 40 mg sc every other week added to current anti-rheumatic therapies, N = 315",53.0%
same,"ACR20 response, N of patients","Week 24, 40 mg sc every other week, N = 315",167
same,"ACR50 response, N of patients responding","Week 24, N = 315",92
